Data on seven compounds can be found in patent publication US20240239861A1, “GLUCAGON-RECEPTOR SELECTIVE POLYPEPTIDES AND METHODS OF USE THEREOF” (i2O Therapeutics, Inc., priority 2016, published 2024).

Where a SMILES comes first, the peptide text is derived from it. [ ]: non-standard residue; d: D form. Aib = CC(C)(N)C(=O)O

As usually defined, the EC50 is the concentration needed to bring the measured effect to its halfway point. A high value points to a need for much substance. Broadly, the clearance is the volume of plasma or blood freed of the substance per unit of time. A higher clearance goes with a high capacity for elimination. For orientation: solubility means the concentration that dissolves in the medium under given conditions.

The target of data set [1] is human GLP-1R (Homo sapiens, UniProt P43220). As to the kind of experiment: Peptide-receptor mediated cAMP accumulation (LANCE Ultra cAMP) in CHO-K1 cells transfected with human GLP-1R. The format is cell-based. (In general: Changes in cAMP serve as a functional read-out for many G protein-coupled receptors.)
human GLP-1R, sequence (P43220 24-463): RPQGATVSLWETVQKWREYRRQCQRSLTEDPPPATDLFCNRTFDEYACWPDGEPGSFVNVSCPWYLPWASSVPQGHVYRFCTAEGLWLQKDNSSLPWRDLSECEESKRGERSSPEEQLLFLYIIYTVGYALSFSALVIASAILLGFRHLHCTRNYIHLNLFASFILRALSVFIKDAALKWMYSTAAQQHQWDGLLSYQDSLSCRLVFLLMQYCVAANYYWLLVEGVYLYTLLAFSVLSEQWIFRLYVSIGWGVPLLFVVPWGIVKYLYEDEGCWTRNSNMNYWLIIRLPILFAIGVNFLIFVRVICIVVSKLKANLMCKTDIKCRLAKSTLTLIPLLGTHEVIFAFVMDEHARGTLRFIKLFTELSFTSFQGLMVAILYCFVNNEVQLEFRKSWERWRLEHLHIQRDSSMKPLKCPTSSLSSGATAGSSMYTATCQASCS
Data set [2] has as its target human GCGR (Homo sapiens, UniProt P47871). As to the kind of experiment: Peptide-receptor mediated cAMP accumulation (LANCE Ultra cAMP) in CHO-K1 cells transfected with human GCGR. The format is cell-based.
Data set [3] in a line: in vivo. Particulars: male, rat.
Description: Peptides were formulated in sterile saline and administered as a 3-hour intravenous infusion to non-fasted male Wistar Han or Sprague-Dawley rats (n=3 per group) via jugular vein cannula at a final dose of 0.3 or 0.1 mg/kg. […] Plasma was prepared by centrifugation and stored at −80° C. until analysis.
Protein Precipitation: All 96-well plates were coated with a blocking agent to mitigate non-specific binding of peptides. Plasma samples (75 uL) were added to a 96-well plate containing 200 uL of 2:1 ethanol:acetonitrile containing 0.1% TFA and mixed well via aspiration. Plates were capped, vortex-mixed and centrifuged. Supernatants (215 uL) were transferred to a clean 96-well plate, evaporated to dryness under nitrogen flow and then reconstituted in 75 μL of 20% acetonitrile in water containing 0.10% formic acid.
Solid-Phase Extraction: Samples were diluted 3-fold with 5% NH4OH (aq) and loaded onto an Oasis MAX microElution plate (Waters Corp, Milford, MA) that had been pre-conditioned with 200 uL each of methanol and 5% NH4OH (aq). The plate was washed with 200 uL 5% NH4OH (aq), followed by 200 uL 20% acetonitrile in water. […] Samples were reconstituted in 80 uL 0.1% formic acid in water.
All calibration standards were prepared in control rat plasma containing K2EDTA and protease inhibitor cocktail. […] Samples were injected onto a 2.1×50 mm reverse phase C18 analytical column, typically a Waters ACQUITY UPLC™ HSS T3, 1.8 μm (Waters Corporation, Milford, MA) or similar. […] Typical flow rates were 600 L/min. The column temperature was held constant at 40 or 45° C. Peptides were quantified my monitoring one or more product ions produced from a multiply charged parent ion.
Data set [4] in a line: Solubility in water or saline at room temperature, visual inspection. The class given is physicochemical. Particulars: Solubility in water mg/ml. An excerpt: Samples were visually inspected for clarity of the sample, any appearance of turbidity or haziness.
Where [5] appears, read: hGLP1 pEC50 (cAMP mean (n = 3): 11 point curve starting at 1 nM, Table 3).

human GCGR, sequence (P47871 26-477): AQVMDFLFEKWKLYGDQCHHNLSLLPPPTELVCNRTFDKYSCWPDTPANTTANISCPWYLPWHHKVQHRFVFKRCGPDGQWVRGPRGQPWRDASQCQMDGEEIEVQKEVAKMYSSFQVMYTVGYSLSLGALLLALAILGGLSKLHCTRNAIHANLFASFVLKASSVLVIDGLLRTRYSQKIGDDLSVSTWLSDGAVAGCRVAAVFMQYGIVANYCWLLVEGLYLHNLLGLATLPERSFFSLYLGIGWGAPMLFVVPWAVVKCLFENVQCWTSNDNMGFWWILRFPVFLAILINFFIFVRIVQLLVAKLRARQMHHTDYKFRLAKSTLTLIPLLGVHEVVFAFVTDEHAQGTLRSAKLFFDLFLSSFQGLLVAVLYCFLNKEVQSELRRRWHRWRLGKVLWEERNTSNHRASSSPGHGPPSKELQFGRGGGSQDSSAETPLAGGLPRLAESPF

For the compound `CC(C)C[C@H](NC(=O)[C@H](Cc1ccc(O)cc1)NC(=O)[C@H](CCCCN)NC(=O)[C@H](CO)NC(=O)[C@H](Cc1ccc(O)cc1)NC(=O)[C@H](CC(=O)O)NC(=O)[C@H](CO)NC(=O)[C@@H](NC(=O)[C@H](Cc1ccccc1)NC(=O)[C@@H](NC(=O)CNC(=O)[C@H](Cc1c[nH]cn1)NC(=O)[C@H](CO)NC(=O)[C@@H](N)Cc1ccc(O)cc1)[C@@H](C)O)[C@@H](C)O)C(=O)N[C@@H](CC(=O)O)C(=O)N[C@@H](CCCCN)C(=O)N[C@@H](C)C(=O)N[C@@H](CCCNC(=N)N)C(=O)N[C@@H](C)C(=O)N[C@@H](CCC(N)=O)C(=O)N[C@@H](CCC(=O)O)C(=O)N[C@@H](Cc1ccccc1)C(=O)N[C@H](C(=O)N[C@@H](CCCCN)C(=O)N[C@@H](Cc1c[nH]c2ccccc12)C(=O)N[C@@H](CC(C)C)C(=O)N[C@@H](CCC(=O)O)C(=O)N[C@@H](CC(=O)O)C(=O)N[C@@H](CCC(=O)O)C(=O)N1CCC[C@H]1C(=O)N[C@@H](CO)C(=O)N[C@@H](CO)C(=O)NCC(=O)N[C@@H](C)C(=O)N1CCC[C@H]1C(=O)N1CCC[C@H]1C(=O)N1CCC[C@H]1C(=O)N[C@@H](CO)C(=O)O)C(C)C` [Compound A43] (H-YSHGTFTSDYSKYLDKARAQEFVKWLEDEPSSGAPPPS-OH; N-terminus assumed), the figures for the EC50 in data set [1] (setting [5]) and in data set [2] (Table 3) were more than 1000 pM and 1.58 pM, respectively. Further, the clearance in data set [3] is 47 mL/min/kg.

On to `CC(C)C[C@H](NC(=O)[C@H](Cc1ccc(O)cc1)NC(=O)[C@H](CCCCN)NC(=O)[C@H](CO)NC(=O)[C@H](Cc1ccc(O)cc1)NC(=O)[C@H](CC(=O)O)NC(=O)[C@H](CO)NC(=O)[C@@H](NC(=O)[C@H](Cc1ccccc1)NC(=O)[C@@H](NC(=O)CNC(=O)[C@H](Cc1c[nH]cn1)NC(=O)[C@H](CO)NC(=O)[C@@H](N)Cc1ccc(O)cc1)[C@@H](C)O)[C@@H](C)O)C(=O)N[C@@H](CC(=O)O)C(=O)N[C@@H](CCC(N)=O)C(=O)N[C@@H](C)C(=O)N[C@@H](CCCNC(=N)N)C(=O)N[C@@H](C)C(=O)N[C@@H](CCC(N)=O)C(=O)N[C@@H](CCC(=O)O)C(=O)N[C@@H](Cc1ccccc1)C(=O)N[C@H](C(=O)N[C@@H](CCCCN)C(=O)N[C@@H](Cc1c[nH]c2ccccc12)C(=O)N[C@@H](CC(C)C)C(=O)N[C@@H](CCC(=O)O)C(=O)N[C@@H](CC(=O)O)C(=O)N[C@@H](CCC(=O)O)C(=O)N1CCC[C@H]1C(=O)N[C@@H](CO)C(=O)N[C@@H](CO)C(=O)NCC(=O)N[C@@H](C)C(=O)N1CCC[C@H]1C(=O)N1CCC[C@H]1C(=O)N1CCC[C@H]1C(=O)N[C@@H](CO)C(=O)O)C(C)C` [Compound A44] (H-YSHGTFTSDYSKYLDQARAQEFVKWLEDEPSSGAPPPS-OH; N-terminus assumed), for which the EC50 is more than 1000 pM in data set [1] (setting [5]) and 1.26 pM in data set [2] (Table 3). For the same compound, in data set [3], the clearance was 23.9 mL/min/kg.

Consider `CC(C)C[C@H](NC(=O)[C@H](Cc1ccc(O)cc1)NC(=O)[C@H](CCCCN)NC(=O)[C@H](CO)NC(=O)[C@H](Cc1ccc(O)cc1)NC(=O)[C@H](CC(=O)O)NC(=O)[C@H](CO)NC(=O)[C@@H](NC(=O)[C@H](Cc1ccccc1)NC(=O)[C@@H](NC(=O)CNC(=O)[C@H](Cc1c[nH]cn1)NC(=O)[C@H](CO)NC(=O)[C@@H](N)Cc1ccc(O)cc1)[C@@H](C)O)[C@@H](C)O)C(=O)N[C@@H](CC(=O)O)C(=O)N[C@@H](CO)C(=O)N[C@@H](C)C(=O)N[C@@H](CCCNC(=N)N)C(=O)N[C@@H](C)C(=O)N[C@@H](CCC(N)=O)C(=O)N[C@@H](CCC(=O)O)C(=O)N[C@@H](Cc1ccccc1)C(=O)N[C@H](C(=O)N[C@@H](CCCCN)C(=O)N[C@@H](Cc1c[nH]c2ccccc12)C(=O)N[C@@H](CC(C)C)C(=O)N[C@@H](CCC(=O)O)C(=O)N[C@@H](CC(=O)O)C(=O)N[C@@H](CCC(=O)O)C(=O)N1CCC[C@H]1C(=O)N[C@@H](CO)C(=O)N[C@@H](CO)C(=O)NCC(=O)N[C@@H](CCCCN)C(=O)N1CCC[C@H]1C(=O)N1CCC[C@H]1C(=O)N1CCC[C@H]1C(=O)N[C@@H](CO)C(=O)O)C(C)C` [Compound A61] (H-YSHGTFTSDYSKYLDSARAQEFVKWLEDEPSSGKPPPS-OH; N-terminus assumed), for which the EC50 in data set [1] (setting [5]) is more than 1000 pM; in data set [2] (Table 3), 3.98 pM. Also, the clearance in data set [3] turned out to be 29.4 mL/min/kg.

On to `CC(C)C[C@H](NC(=O)[C@H](Cc1ccc(O)cc1)NC(=O)[C@H](CCCCN)NC(=O)[C@H](CO)NC(=O)[C@H](Cc1ccc(O)cc1)NC(=O)[C@H](CC(=O)O)NC(=O)[C@H](CO)NC(=O)[C@@H](NC(=O)[C@H](Cc1ccccc1)NC(=O)[C@@H](NC(=O)CNC(=O)[C@H](Cc1c[nH]cn1)NC(=O)[C@H](CO)NC(=O)[C@@H](N)Cc1ccc(O)cc1)[C@@H](C)O)[C@@H](C)O)C(=O)N[C@@H](CC(=O)O)C(=O)N[C@@H](CO)C(=O)N[C@@H](C)C(=O)N[C@@H](CCCNC(=N)N)C(=O)N[C@@H](C)C(=O)N[C@@H](CCC(N)=O)C(=O)N[C@@H](CCC(=O)O)C(=O)N[C@@H](Cc1ccccc1)C(=O)N[C@H](C(=O)N[C@@H](CCCCN)C(=O)N[C@@H](Cc1c[nH]c2ccccc12)C(=O)N[C@@H](CC(C)C)C(=O)N[C@@H](CCC(=O)O)C(=O)N[C@@H](CC(=O)O)C(=O)N[C@@H](CCC(=O)O)C(=O)N1CCC[C@H]1C(=O)N[C@@H](CCCCN)C(=O)N[C@@H](CO)C(=O)N[C@@H](CCCCN)C(=O)N[C@@H](CO)C(=O)N1CCC[C@H]1C(=O)N1CCC[C@H]1C(=O)N1CCC[C@H]1C(=O)N[C@@H](CO)C(=O)O)C(C)C` [Compound A70] (H-YSHGTFTSDYSKYLDSARAQEFVKWLEDEPKSKSPPPS-OH; N-terminus assumed), for which the half-maximal effective concentration (EC50) was more than 1000 pM in data set [1] (setting [5]) and 1 pM in data set [2] (Table 3). Besides, the clearance in data set [3] came to 20.9 mL/min/kg.

In the case of `CC(C)C[C@H](NC(=O)[C@H](Cc1ccc(O)cc1)NC(=O)[C@H](CCCCN)NC(=O)[C@H](CO)NC(=O)[C@H](Cc1ccc(O)cc1)NC(=O)[C@H](CC(=O)O)NC(=O)[C@H](CO)NC(=O)[C@@H](NC(=O)[C@H](Cc1ccccc1)NC(=O)[C@@H](NC(=O)CNC(=O)[C@H](Cc1c[nH]cn1)NC(=O)[C@H](CO)NC(=O)[C@@H](N)Cc1ccc(O)cc1)[C@@H](C)O)[C@@H](C)O)C(=O)N[C@@H](CC(=O)O)C(=O)N[C@@H](CO)C(=O)N[C@@H](C)C(=O)N[C@@H](CCCNC(=N)N)C(=O)N[C@@H](C)C(=O)N[C@@H](CCC(N)=O)C(=O)N[C@@H](CCC(=O)O)C(=O)N[C@@H](Cc1ccccc1)C(=O)N[C@H](C(=O)N[C@@H](CCCCN)C(=O)N[C@@H](Cc1c[nH]c2ccccc12)C(=O)N[C@@H](CC(C)C)C(=O)N[C@@H](CCC(=O)O)C(=O)N[C@@H](CC(=O)O)C(=O)N[C@@H](CCC(=O)O)C(=O)N1CCC[C@H]1C(=O)N[C@@H](CCCCN)C(=O)N[C@@H](CO)C(=O)N[C@@H](CCCCN)C(=O)N[C@@H](CO)C(=O)N1CCC[C@H]1C(=O)N1CCC[C@H]1C(=O)N1CCC[C@H]1C(=O)N[C@@H](CO)C(N)=O)C(C)C` [Compound A73] (H-YSHGTFTSDYSKYLDSARAQEFVKWLEDEPKSKSPPPS-NH2; N-terminus assumed), the figures for the EC50 in data set [1] (setting [5]) and in data set [2] (Table 3) were more than 1000 pM and 2 pM, respectively. In data set [3], this compound came in with a clearance of 23 mL/min/kg.

On to `CC(C)C[C@H](NC(=O)[C@H](Cc1ccc(O)cc1)NC(=O)[C@H](CCCCN)NC(=O)[C@H](CO)NC(=O)[C@H](Cc1ccc(O)cc1)NC(=O)[C@H](CC(=O)O)NC(=O)[C@H](CO)NC(=O)[C@@H](NC(=O)[C@H](Cc1ccccc1)NC(=O)[C@@H](NC(=O)CNC(=O)[C@H](CCC(N)=O)NC(=O)[C@H](CO)NC(=O)[C@@H](N)Cc1ccc(O)cc1)[C@@H](C)O)[C@@H](C)O)C(=O)N[C@@H](CC(=O)O)C(=O)NC(C)(C)C(=O)N[C@@H](CCCCN)C(=O)N[C@@H](C)C(=O)N[C@@H](C)C(=O)N[C@@H](CCC(N)=O)C(=O)N[C@@H](CCC(=O)O)C(=O)N[C@@H](Cc1ccccc1)C(=O)N[C@H](C(=O)NC(C)(C)C(=O)N[C@@H](Cc1c[nH]c2ccccc12)C(=O)N[C@@H](CC(C)C)C(=O)N[C@@H](CCC(=O)O)C(=O)N[C@@H](CC(=O)O)C(=O)N[C@@H](CCC(=O)O)C(=O)N1CCC[C@H]1C(=O)N[C@@H](CO)C(=O)N[C@@H](CO)C(=O)NCC(=O)N[C@@H](C)C(=O)N1CCC[C@H]1C(=O)N1CCC[C@H]1C(=O)N1CCC[C@H]1C(=O)N[C@@H](CO)C(=O)O)C(C)C` [Compound A95] (H-YSQGTFTSDYSKYLD[Aib]KAAQEFV[Aib]WLEDEPSSGAPPPS-OH; N-terminus assumed), for which the concentration for a half-maximal effect (EC50) in data set [1] (setting [5]) was more than 1000 pM. Moreover, the clearance in data set [3] was found to be 15.4 mL/min/kg.

`CC(C)C[C@H](NC(=O)[C@H](Cc1ccc(O)cc1)NC(=O)[C@H](CCCCN)NC(=O)[C@H](CO)NC(=O)[C@H](Cc1ccc(O)cc1)NC(=O)[C@H](CC(=O)O)NC(=O)[C@H](CO)NC(=O)[C@@H](NC(=O)[C@H](Cc1ccccc1)NC(=O)[C@@H](NC(=O)CNC(=O)[C@H](Cc1c[nH]cn1)NC(=O)[C@H](CO)NC(=O)[C@@H](N)Cc1ccc(O)cc1)[C@@H](C)O)[C@@H](C)O)C(=O)N[C@@H](CC(=O)O)C(=O)NC(C)(C)C(=O)N[C@@H](C)C(=O)N[C@@H](CCCNC(=N)N)C(=O)N[C@@H](C)C(=O)N[C@@H](CCC(N)=O)C(=O)N[C@@H](CCC(=O)O)C(=O)N[C@@H](Cc1ccccc1)C(=O)N[C@H](C(=O)NC(C)(C)C(=O)N[C@@H](Cc1c[nH]c2ccccc12)C(=O)N[C@@H](CC(C)C)C(=O)N[C@@H](CCC(=O)O)C(=O)N[C@@H](CC(=O)O)C(=O)N[C@@H](CCC(=O)O)C(=O)N1CCC[C@H]1C(=O)N[C@@H](CO)C(=O)N[C@@H](CO)C(=O)NCC(=O)N[C@@H](C)C(=O)N1CCC[C@H]1C(=O)N1CCC[C@H]1C(=O)N1CCC[C@H]1C(=O)N[C@@H](CO)C(=O)O)C(C)C` [Compound A103] (H-YSHGTFTSDYSKYLD[Aib]ARAQEFV[Aib]WLEDEPSSGAPPPS-OH; N-terminus assumed): the EC50 was more than 1000 pM in data set [1] (setting [5]); more than 1000 pM in data set [1] (hGLP1 pEC50 (cAMP) mean (n = 3): 11 point curve starting at 1 nM, Table 2B); 1.26 pM in data set [2] (Table 2B). In addition, the “hGCGR pEC50 (cAMP mean (n = 3): 11 point curve starting at 1 nM)” value in data set [2] (Table 3) stood at 11.9. In data set [3], this compound came in with a clearance of 28.5 mL/min/kg. In data set [4], this compound displayed a solubility of more than 200 mg/mL.
